Laboratory results: ChEMBL document CHEMBL4400508, “Targeted Endocrine Therapy: Design, Synthesis, and Proof-of-Principle of 17β-Hydroxysteroid Dehydrogenase Type 2 Inhibitors in Bone Fracture Healing” (J Med Chem, 2019)

Key:
[1] = target: T1, PXR (NR1I2); CYP3 induction (Homo sapiens, UniProt O75469); test: in vitro
T1 sequence (O75469 whole entry): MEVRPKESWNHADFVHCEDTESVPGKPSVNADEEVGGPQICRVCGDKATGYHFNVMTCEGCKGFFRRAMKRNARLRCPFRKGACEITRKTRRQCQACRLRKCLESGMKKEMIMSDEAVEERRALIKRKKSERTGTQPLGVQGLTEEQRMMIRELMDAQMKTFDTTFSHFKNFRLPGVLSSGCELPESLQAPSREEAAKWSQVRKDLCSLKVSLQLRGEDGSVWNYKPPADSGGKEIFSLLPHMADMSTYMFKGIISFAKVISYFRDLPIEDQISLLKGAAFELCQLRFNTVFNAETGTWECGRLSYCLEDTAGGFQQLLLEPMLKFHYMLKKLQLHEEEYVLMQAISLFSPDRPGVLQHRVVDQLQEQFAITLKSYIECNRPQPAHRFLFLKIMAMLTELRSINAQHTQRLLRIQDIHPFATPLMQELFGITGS
Description: Agonist activity at recombinant human PXR assessed as induction of CYP3 at 3.16 uM after 60 mins relative to control

[2] = target: T2, AhR (aryl hydrocarbon receptor); CYP1 induction (Homo sapiens, UniProt P35869); test: in vitro; settings: hepg2
T2 sequence (P35869 whole entry): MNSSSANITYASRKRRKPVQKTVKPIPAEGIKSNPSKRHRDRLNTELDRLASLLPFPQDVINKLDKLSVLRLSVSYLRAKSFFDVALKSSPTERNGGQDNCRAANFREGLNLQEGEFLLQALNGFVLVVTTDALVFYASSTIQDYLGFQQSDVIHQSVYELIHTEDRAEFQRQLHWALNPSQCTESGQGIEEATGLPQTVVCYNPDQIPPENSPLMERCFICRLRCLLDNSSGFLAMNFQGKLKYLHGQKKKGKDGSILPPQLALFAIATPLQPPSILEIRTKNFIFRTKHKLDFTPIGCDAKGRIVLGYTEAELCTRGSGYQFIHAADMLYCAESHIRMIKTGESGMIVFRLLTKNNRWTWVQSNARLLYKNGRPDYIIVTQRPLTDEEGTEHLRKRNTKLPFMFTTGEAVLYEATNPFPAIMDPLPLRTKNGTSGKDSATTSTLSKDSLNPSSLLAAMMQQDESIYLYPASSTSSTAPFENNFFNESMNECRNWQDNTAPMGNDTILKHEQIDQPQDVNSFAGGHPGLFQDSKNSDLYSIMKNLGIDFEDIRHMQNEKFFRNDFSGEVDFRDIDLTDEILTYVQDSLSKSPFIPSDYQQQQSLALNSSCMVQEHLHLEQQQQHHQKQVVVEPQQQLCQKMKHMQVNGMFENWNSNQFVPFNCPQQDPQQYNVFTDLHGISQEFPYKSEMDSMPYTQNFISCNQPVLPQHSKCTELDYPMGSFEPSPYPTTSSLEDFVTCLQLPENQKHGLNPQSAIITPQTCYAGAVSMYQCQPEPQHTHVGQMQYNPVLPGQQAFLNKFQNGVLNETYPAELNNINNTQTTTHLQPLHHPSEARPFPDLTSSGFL
Description: Agonist activity at AhR in human HepG2 assessed as induction of CYP1 at 3.16 uM relative to control

[3] = target: T3, constitutive androstane receptor (NR1I3); CYP2 induction (Homo sapiens, UniProt Q14994); test: in vitro
T3 sequence (Q14994 whole entry): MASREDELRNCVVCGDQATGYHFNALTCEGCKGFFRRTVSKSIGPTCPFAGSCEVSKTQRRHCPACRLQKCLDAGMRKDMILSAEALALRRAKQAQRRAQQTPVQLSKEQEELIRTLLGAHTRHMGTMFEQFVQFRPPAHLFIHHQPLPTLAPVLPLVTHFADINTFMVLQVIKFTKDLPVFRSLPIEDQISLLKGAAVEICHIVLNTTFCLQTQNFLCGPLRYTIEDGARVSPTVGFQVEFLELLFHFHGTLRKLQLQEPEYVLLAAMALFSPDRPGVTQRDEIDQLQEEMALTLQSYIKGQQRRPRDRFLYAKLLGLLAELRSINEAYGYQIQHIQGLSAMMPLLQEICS
Description: Agonist activity at recombinant human constitutive androstane receptor assessed as induction of CYP2 at 3.16 uM relative to control

[4] = in vitro; settings: human, s9
Description: Half life in human liver S9 fraction in presence of NADPH, UDPGA, PAPS

[5] = target: T4, 17-beta-hydroxysteroid dehydrogenase type 1 (Mus musculus, UniProt P51656); format: cell-based, HEK293
T4 sequence (P51656 whole entry): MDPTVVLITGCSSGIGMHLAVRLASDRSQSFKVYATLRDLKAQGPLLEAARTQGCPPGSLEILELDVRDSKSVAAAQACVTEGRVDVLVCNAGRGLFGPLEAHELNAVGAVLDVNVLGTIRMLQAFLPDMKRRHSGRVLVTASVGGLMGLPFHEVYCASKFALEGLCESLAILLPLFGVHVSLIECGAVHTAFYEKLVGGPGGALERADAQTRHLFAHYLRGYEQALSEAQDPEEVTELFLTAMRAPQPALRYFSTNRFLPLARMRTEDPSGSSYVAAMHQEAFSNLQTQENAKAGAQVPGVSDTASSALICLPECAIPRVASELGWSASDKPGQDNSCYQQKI
Description: Inhibition of recombinant mouse 17beta-HSD1 expressed in HEK293 cells using [3H]-E1 as substrate in presence of NAD+ by radio-HPLC analysis

[6] = target: T5, Estradiol 17-beta-dehydrogenase 2 (Mus musculus, UniProt P51658); test: biochemical; format: tissue-based, Liver
T5 sequence (P51658 whole entry): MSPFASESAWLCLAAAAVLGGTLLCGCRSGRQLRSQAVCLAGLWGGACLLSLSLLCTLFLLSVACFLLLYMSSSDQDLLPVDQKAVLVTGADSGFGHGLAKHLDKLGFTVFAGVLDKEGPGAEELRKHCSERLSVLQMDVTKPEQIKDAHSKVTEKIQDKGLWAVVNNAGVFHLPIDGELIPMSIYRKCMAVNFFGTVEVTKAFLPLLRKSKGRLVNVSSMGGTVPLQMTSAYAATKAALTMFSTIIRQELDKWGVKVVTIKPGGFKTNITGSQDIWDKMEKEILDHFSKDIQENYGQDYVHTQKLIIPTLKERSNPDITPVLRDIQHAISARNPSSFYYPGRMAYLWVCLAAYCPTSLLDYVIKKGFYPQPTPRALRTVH
Description: Inhibition of mouse liver homogenate 17beta-HSD2 using [3H]-E2 as substrate in presence of NAD+ by radio-HPLC analysis

[7] = target: T6, 17-beta-hydroxysteroid dehydrogenase type 1 (Homo sapiens, UniProt P14061)
T6 sequence (P14061 whole entry): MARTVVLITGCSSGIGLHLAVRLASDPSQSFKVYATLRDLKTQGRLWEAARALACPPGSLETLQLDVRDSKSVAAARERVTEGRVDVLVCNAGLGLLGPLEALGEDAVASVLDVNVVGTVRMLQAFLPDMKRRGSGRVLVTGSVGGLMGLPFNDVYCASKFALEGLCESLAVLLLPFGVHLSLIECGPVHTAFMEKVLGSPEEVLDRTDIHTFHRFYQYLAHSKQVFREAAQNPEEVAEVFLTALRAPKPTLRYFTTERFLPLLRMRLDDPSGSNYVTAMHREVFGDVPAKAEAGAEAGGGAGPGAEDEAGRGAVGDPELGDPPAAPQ
Description: Inhibition of human placental cytosolic fraction 17beta-HSD1 using [3H]-E1 as substrate in presence of NAD+ by radio-HPLC analysis

Structure (SMILES)	half-life [4] [min]	IC50 [6] [nM]	IC50 [7] [nM]	other results
O=C(c1ccc(-c2cccc(NS(=O)(=O)c3ccccc3OC(F)(F)F)c2)s1)c1cc(F)c(F)c(O)c1F	60	–	–	activity at 1 h, 3.16 µM [1]: < 5%; activity at 3.16 µM [2]: < 5%; activity at 3.16 µM [3]: < 5%; IC50 [5]: 1760 nM
O=C(c1ccc(-c2cccc(NS(=O)(=O)c3ccc(F)cc3)c2)s1)c1cc(F)c(F)c(O)c1F	32	27.3	–	–
Cc1ccc(S(=O)(=O)Nc2cccc(-c3ccc(C(=O)c4cc(F)c(F)c(O)c4F)s3)c2)cc1	32	9.9	0.1	–
Cc1c(O)cccc1C(=O)c1ccc(-c2cccc(NS(=O)(=O)c3ccccc3)c2)s1	–	–	306	–
O=C(c1ccc(-c2cccc(NS(=O)(=O)c3ccccc3)c2)s1)c1c(F)ccc(O)c1Cl	< 5	2.7	15.6	–
O=C(c1ccc(-c2cccc(NS(=O)(=O)c3cccc(Cl)c3)c2)s1)c1cc(F)c(F)c(O)c1F	42	5.6	0.8	–
O=C(c1ccc(Cl)c(O)c1)c1ccc(-c2cccc(NS(=O)(=O)c3ccccc3)c2)s1	–	–	8.2	–
Cc1cccc(S(=O)(=O)Nc2cccc(-c3ccc(C(=O)c4cc(F)c(F)c(O)c4F)s3)c2)c1	28	7.9	0.1	–
O=C(c1ccc(-c2cccc(NS(=O)(=O)c3ccccc3)c2)s1)c1c(Cl)ccc(O)c1F	–	–	1.7	–
O=C(c1ccc(-c2cccc(NS(=O)(=O)c3ccc(Cl)cc3)c2)s1)c1cc(F)c(F)c(O)c1F	40	6.2	0.7	–
O=C(c1ccc(-c2cccc(NS(=O)(=O)c3ccccc3C(F)(F)F)c2)s1)c1cc(F)c(F)c(O)c1F	51	–	–	–
O=C(c1ccc(-c2cccc(NS(=O)(=O)c3ccccc3)c2)s1)c1cccc(O)c1Cl	< 5	2.7	20.3	–
O=C(c1ccc(-c2cccc(NS(=O)(=O)c3ccccc3)c2)s1)c1c(F)ccc(O)c1F	–	30.5	1.4	–
